Patent US10189875B2, “Anti-cancer peptide and use thereof” (ENSOL BIOSCIENCES INC., priority 2015, dated 2019)

Legend:
[1] = test system: SNU-790 thyroid cancer cells; test: Transwell invasion assay (TGF-beta1-induced invasion of cancer cells); format: cell-based; conditions: invasion increased by 10 ng/ml TGF-beta1; peptide at 40 and 100 [1M; 2 days culture; FIG. 1
Experimental: Whether the invasion of cancer cells was inhibited by the peptide of Example 1 was evaluated experimentally. Specifically, in order to evaluate the effect of the peptide of Example 1 on inhibiting the invasion of cancer cells, a Transwell invasion assay was performed. Growth factor reduced Matrigel (BD Biosciences, Franklin Lakes, N.J., USA) was diluted at 1:1 with a medium [RPMI 1640 medium (Welgene Inc., Korea)] and 70 fek thereof was added to the top chamber of the Transwell insert (Corning cat#3422, Tewksbury Mass., USA), followed by a coating process for 1 hr in a CO2 incubator at 37° C. 500 fek of a medium [RPMI 1640 medium (Welgene Inc., Korea)] containing 10% fetal bovine serum (FBS, Cellgro cat#35-015-CV, USA) was added to the bottom chamber, after which the test group was added with 10 ng/ml of TGF-betal (PromoKine, Germany). The coated top chamber was mounted to the bottom chamber, and 100 ick of RPMI 1640 medium containing 0.5% FBS with 20000 SNU-790 thyroid cancer cells (Korean Cell Line Bank) was added to the top chamber. In this way, a negative control group and two test groups were prepared. […]
The test groups, the control group, and the negative control group were cultured in a CO2 incubator for 2 days at 37° C. […] Four randomly selected regions were photographed and the number of cells in these regions was counted, averaged and graphed. […]

[2] = test system: 4T1 mouse breast cancer cells; test: Lung metastasis model with 4T1 cells, count of metastatic tumor nodules; format: in vivo, female BALB/c mice; conditions: FIG. 2; for number of tumor nodules (lung): caudal vein, three times a week for three weeks, autopsy on 21st day, vs negative control
Experimental: Whether the metastasis of cancer cells was inhibited by the peptide of Example 1 was evaluated experimentally. Specifically, in order to evaluate the inhibitory effect of the peptide of Example 1 on the metastasis of cancer cells, testing was performed using a lung metastasis model with 4T1 mouse breast cancer cells (ATCC CRL-2539, USA). The peptide of Example 1 was injected into the caudal vein of the tail of female BALB/c mice (SPF, SLC/Japan). The test group was divided into three groups according to the administration concentration; low concentration [40/2 g/head], middle concentration [80/2 g/head], and high concentration 1120, ug/headl. The negative control group was treated in the same manner as the test group, with the exception that the peptide of Example 1 was not administered. On the day after first administration, 4T1 cells (1.5×10^4 cells/head) were injected into the mouse tail caudal vein. After 1 hr, the peptide of Example 1 was secondarily administered. The administration of the peptide was performed three times a week (Monday, Wednesday, and Friday) for a total of three weeks ranging from the second administration day to the final administration day. The weight of the mouse was measured two times a week, and an autopsy was performed on the 21st day after the injection of cancer cells. The lung tissue was excised, stained with a Bouin's solution, and fixed, and then the number of metastatic tumor nodules was counted. Also, a group (a normal group), treated in the same manner as the test group, was prepared as a control group, with the exception that neither the peptide of Example 1 nor 4T1 cells were added. The graph of FIG. 2 is plotted with an x-axis for each group and a y-axis for the number of tumor nodules. As such, n designates the number of individuals in each group, and P designates the significance probability.

[3] = test system: 4T1 mouse breast cancer cells; test: Survival rate in the 4T1 lung metastasis model; format: in vivo, female BALB/c mice; conditions: FIG. 3
Experimental: Whether the metastasis of cancer cells was inhibited by the peptide of Example 1 was evaluated experimentally. Specifically, in order to evaluate the inhibitory effect of the peptide of Example 1 on the metastasis of cancer cells, testing was performed using a lung metastasis model with 4T1 mouse breast cancer cells (ATCC CRL-2539, USA). The peptide of Example 1 was injected into the caudal vein of the tail of female BALB/c mice (SPF, SLC/Japan). The test group was divided into three groups according to the administration concentration; low concentration [40/2 g/head], middle concentration [80/2 g/head], and high concentration 1120, ug/headl. The negative control group was treated in the same manner as the test group, with the exception that the peptide of Example 1 was not administered. […] The weight of the mouse was measured two times a week, and an autopsy was performed on the 21st day after the injection of cancer cells. The lung tissue was excised, stained with a Bouin's solution, and fixed, and then the number of metastatic tumor nodules was counted. […]
The anticancer effect of the peptide of Example 1 was evaluated experimentally. Specifically, in order to evaluate the effect of the peptide of Example 1 on surviving individuals suffering from cancer, the survival rate was measured using an animal model prepared in the same manner as in Example 3. […]

[4] = test system: B16-BL6 mouse melanoma cells; test: Survival rate in animal model with B16-BL6 melanoma cells; format: in vivo, male C57BL/6J mice; conditions: FIG. 4
Experimental: The anticancer effect of the peptide of Example 1 was evaluated experimentally. Specifically, in order to evaluate the effect of the peptide of Example 1 on surviving individuals suffering from cancer, the survival rate was measured using an animal model with B16-BL6 mouse melanoma cells (Korean Cell Line Bank, Korea).
B16-BL6 cells {1×10^5 cells/head} were subcutaneously injected into 7-week-old male C57BL/6J mice (Orientbio Inc., Korea). After one week, the peptide of Example 1 was intraperitoneally administered. The test group was divided into three groups according to the administration concentration; low concentration {40, ttg/head}, middle concentration {80, ttg/head}, and high concentration {120, ttg/head}. The negative control group was treated in the same manner as the test group, with the exception that the peptide of Example 1 was not administered. The administration was repeated two times a week for two weeks from the first administration day and then once a week for an additional four weeks, and the peptide was administered a total of eight times. To measure the survival rate, the survival rate for each group was observed and recorded. In the graph of FIG. 4, showing the survival rate, the x-axis represents the number of days since injection of the cancer cells, and the y-axis represents the survival rate (%). […]

[5] = low, middle and high concentration groups compared

QLHLD [Example 1]
invasion of cancer cells (number of invading cells) [1]: inhibited in a concentration-dependent manner
number of tumor nodules (lung) ([2]; high concentration (120 ug/head)): significantly (P<0.001) reduced
inhibitory effect of cancer metastasis, comparison among dose groups [2, 5]: highest in the test group in which the peptide was administered at the middle concentration
number of tumor nodules (lung) ([2]; middle concentration [80/2 g/head]): significantly (P<0.001) reduced
survival rate, comparison among dose groups [3, 5]: highest in the test group in which the peptide was administered at the middle concentration
survival rate ([3]; middle and high concentrations, caudal vein, vs negative control): some individuals survived even after the death of the negative control group
survival rate, comparison among dose groups [4, 5]: highest in the test group in which the peptide was administered at the middle concentration
survival rate ([4]; test groups (low 40, middle 80, high 120 ttg/head), intraperitoneal, eight administrations, vs negative control): some individuals survived even after the death of the negative control group
